{
  "source": "paper PMC8895377",
  "about": "“In Vivo Targeting Replication Protein A for Cancer Therapy” (Frontiers in Oncology, 2022)",
  "key": {"[1]": {"system": "60 cancer cell lines", "test": "Cell viability in 60 cancer cell lines (CellTiter-Glo)", "assay_type": "cell-based", "settings": "72 h, most values, read-out: cellular IC50", "experimental": "In this study, 90-µl cell suspensions were seeded in 96-well plates in respective culture medium with a final cell density of 4 × 10^3 cells/well and incubated overnight. Here, 10× solution of 329 (top working concentration: 40 µM of test article in media with 3.16-fold serial dilutions to achieve 9 dose levels) was prepared, and 10 µl of drug solution or culture medium containing 0.5% DMSO (vehicle control) was added to the plate (triplicate for each drug concentration). Plates were incubated for 72 h at 37°C with 5% CO2 and then measured by CellTiter-Glo assay (Promega). Briefly, plates were equilibrated at room temperature for 30 min, and 50 µl of CellTiter-Glo reagent was added to each well. Contents were mixed for 5 min on an orbital shaker to induce cell lysis, and plates were further incubated at room temperature for 20 min to stabilize the luminescent signal. Luminescence was recorded using EnVision Multi Plate Reader. Percent cell growth was calculated relative to DMSO-treated cells (vehicle control), and the data were fit using non-linear regression analysis (GraphPad PRISM) to calculate cellular IC50.\nFigure 4 Cellular activity of 329 in 60 cancer cell lines. Cell lines were treated with a 4-log range of replication protein A inhibitor (RPAi) 329 for 72 h. Cell viability was assessed using CellTiter-Glo luminescent viability assay. […]"}, "[2]": {"system": "A549 adenocarcinoma and H460 large cell carcinoma", "set-up": "method as in doi:10.1101/2020.11.30.404640", "settings": "both models, differing dosing regimens, DMSO/Tween; cited from earlier work"}, "[3]": {"system": "A549 adenocarcinoma xenografts", "test": "A549 xenograft efficacy", "assay_type": "in vivo, mice", "excerpt": "To assess anticancer efficacy, the hind flanks of 60 8–10-week-old Nod SCID gamma (NSG) mice were implanted with the indicated cells (~2 × 10^6) in Matrigel. Tumor volumes were monitored by electronic caliper measurement [tumor volumes = length × (perpendicular width)^2 × 0.5]. NSG studies were approved by the Institutional Animal Care and Use Committee at Indiana University School of Medicine. Male NSG (NOD‐scid/IL2Rg^null) mice (In Vivo Therapeutics Core Facility, IU Simon Comprehensive Cancer Center, Indianapolis, IN, USA) were used and housed in a pathogen‐free facility at IUSM LARC. Mice with tumors of approximately 100 mm^3 were randomized into individual treatment arms. The indicated RPAi was formulated and administered via intraperitoneal injection (IP) at the indicated times. Tumor volumes were monitored biweekly as indicated, and the results are presented as the average tumor volume ± standard error of the mean for each group. […]\nFigure 8 In vivo analysis of anticancer activity of 329. (A) Anticancer activity was assessed in human H460 NCSLC tumor xenografts in NOD/SCID mice. Mice were implanted subcutaneously on day 1 with H460 NSCLC cells, tumors were measured by calipers, and mice assigned randomly to treatment arms. […] (C) Tumor weight from A549 cells was determined on day 32. […]"}, "[4]": {"test": "Pharmacokinetics in mice (plasma, HPLC-MS/MS)", "assay_type": "in vivo", "settings": "for AUC(0-inf): read-out: AUC 0-inf_obs; for k el: read-out: Lambda_z (converted); for MRT inf: read-out: MRT 0-inf_obs", "experimental": "A method to quantify 329 from plasma has been developed using an internal standard, liquid–liquid extraction, and HPLC-MS/MS. Mouse plasma samples were prepared from treated mice at the indicated times frozen at -80°C until analysis. Plasma samples were thawed (20 µl) and transferred to polypropylene tubes, and the internal standard is added (20 µl of 0.1 ng/µl). Samples were diluted in 0.1 M phosphate buffer (pH = 7.4) and equal volume of methyl tertiary butyl ether. The samples were mixed and centrifuged at 12,000×g for 5 min, and the supernatant was transferred to a clean polypropylene tube. The solvent was evaporated to dryness, brought up in mobile phase analyzed by HPLC-MS/MS (ABSciex 4000). The mobile phase is delivered via gradient using acetonitrile and 0.1% formic acid on an Agilent Zorbax 300SB-C8 150 × 4.6 mm, 5-µm column. The mass spectrometer utilized an electrospray ionization probe run in positive mode. Multiple reaction monitoring was employed with Q1/Q3 (m/z) transitions for 329 at 718.2/128.1 and 687.3/128.1 for the internal standard. The lower limit of quantification is 0.1 ng/ml using 20 µl of plasma.\nPK parameters were assessed in a series of studies in immunocompetent mice both IV and IP ( Figure 7B and Table 4 ). […] The half-life was also well within acceptable range (9 h)."}, "[5]": {"settings": "IP, DMSO vehicle, 200 mg/kg, mice"}, "[6]": {"settings": "IP, NMP vehicle, 20 mg/kg, mice"}, "[7]": {"settings": "IP, NMP vehicle, 200 mg/kg, mice"}, "[8]": {"settings": "mouse, plasma, ip, 20 mg/kg, IP, NMP vehicle, 20 mg/kg, mice"}, "[9]": {"settings": "mouse, plasma, ip, 20 mg/kg, NMP vehicle, mice"}, "[10]": {"settings": "mouse, plasma, ip, 200 mg/kg, DMSO vehicle, mice"}, "[11]": {"settings": "mouse, plasma, ip, 200 mg/kg, IP, DMSO vehicle, 200 mg/kg, mice"}, "[12]": {"settings": "mouse, plasma, ip, 200 mg/kg, IP, NMP vehicle, 200 mg/kg, mice"}, "[13]": {"settings": "mouse, plasma, ip, 200 mg/kg, NMP vehicle, mice"}, "[14]": {"settings": "mouse, plasma, iv, 2 mg/kg, IV, NMP vehicle, 2 mg/kg, mice"}, "[15]": {"settings": "mouse, plasma, iv, 2 mg/kg, NMP vehicle, mice"}},
  "note": "pIC50: −log10 of the molar value. Read-outs that look alike come from different tables or passages of the source.",
  "data": [
    {"smiles": "CCOc1ccc2cc(C3CC(c4ccc(I)cc4)=NN3C(=O)CCCC(=O)NCCCN3CCOCC3)c(Cl)nc2c1", "note": "(stereo not shown) [compound 329]", "values": [
      {"measurement": "pIC50", "setting": "[1]", "value": "5.00 to 5.30"},
      {"measurement": "single-agent anticancer activity in vivo", "setting": "[2]", "value": "only modest single-agent anticancer activity"},
      {"measurement": "tumor growth", "setting": "[3]; 40 mg/kg IP once daily from day 11, optimized formulation", "value": "significant reduction in tumor growth"},
      {"measurement": "terminal tumor weight", "setting": "[3]; 40 mg/kg IP, day 32", "value": "significant smaller tumors"},
      {"measurement": "AUC and Cmax compared to 551", "setting": "[4]; DMSO/Tween formulation, data not shown", "value": "significant reduction in AUC and Cmax"},
      {"measurement": "AUMC 0-inf_obs", "setting": "[4]; [5]", "value": 95023.52, "unit": "ng/ml*h^2"},
      {"measurement": "CI/F_obs", "setting": "[4]; [5]", "value": "0.0902 (mg/kg)/(ng/ml)/h"},
      {"measurement": "Vz/F_obs", "setting": "[4]; [5]", "value": "4.015 (mg/kg)/(ng/ml)"},
      {"measurement": "AUMC 0-inf_obs", "setting": "[4]; [6]", "value": 98489.24, "unit": "ng/ml*h^2"},
      {"measurement": "CI/F_obs", "setting": "[4]; [6]", "value": "0.0012 (mg/kg)/(ng/ml)/h"},
      {"measurement": "Vz/F_obs", "setting": "[4]; [6]", "value": "0.011 (mg/kg)/(ng/ml)"},
      {"measurement": "AUMC 0-inf_obs", "setting": "[4]; [7]", "value": 947545.56, "unit": "ng/ml*h^2"},
      {"measurement": "Vz/F_obs", "setting": "[4]; [7]", "value": "0.172 (mg/kg)/(ng/ml)"},
      {"measurement": "AUMC 0-inf_obs", "setting": "[4]; IV, NMP vehicle, 2 mg/kg, mice", "value": 1897.83, "unit": "ng/ml*h^2"},
      {"measurement": "CI/F_obs", "setting": "[4]; IV, NMP vehicle, 2 mg/kg, mice", "value": "0.0014 (mg/kg)/(ng/ml)/h"},
      {"measurement": "Vz/F_obs", "setting": "[4]; IV, NMP vehicle, 2 mg/kg, mice", "value": "0.007 (mg/kg)/(ng/ml)"},
      {"measurement": "bioavailability", "setting": "[4]; mouse, plasma, intraperitoneal, IP at 20 mg/kg versus IV dosing, read-out: absolute bioavailability", "value": 84, "unit": "%"},
      {"measurement": "AUC(0-inf)", "setting": "[4]; [8]", "value": 16500, "unit": "ng·h/mL"},
      {"measurement": "k el", "setting": "[4]; [8]", "value": "3.06e-05", "unit": "s⁻¹"},
      {"measurement": "MRT inf", "setting": "[4]; [8]", "value": 5.98, "unit": "h"},
      {"measurement": "half-life", "setting": "[4]; mouse, plasma, ip, 20 mg/kg, IP, NMP vehicle, 20 mg/kg, mice, read-out: t1/2 (converted)", "value": 6.3, "unit": "h"},
      {"measurement": "AUC(0-t)", "setting": "[4]; [9]", "value": 16400, "unit": "ng·h/mL"},
      {"measurement": "Cmax", "setting": "[4]; [9]", "value": 2510, "unit": "ng/mL"},
      {"measurement": "Tmax", "setting": "[4]; [9]", "value": 2, "unit": "h"},
      {"measurement": "AUC(0-t)", "setting": "[4]; [10]", "value": 968, "unit": "ng·h/mL"},
      {"measurement": "Cmax", "setting": "[4]; [10]", "value": 92.1, "unit": "ng/mL"},
      {"measurement": "Tmax", "setting": "[4]; [10]", "value": 0.25, "unit": "h"},
      {"measurement": "AUC(0-inf)", "setting": "[4]; [11]", "value": 2220, "unit": "ng·h/mL"},
      {"measurement": "k el", "setting": "[4]; [11]", "value": "5.56e-06", "unit": "s⁻¹"},
      {"measurement": "MRT inf", "setting": "[4]; [11]", "value": 42.8, "unit": "h"},
      {"measurement": "half-life", "setting": "[4]; mouse, plasma, ip, 200 mg/kg, IP, DMSO vehicle, 200 mg/kg, mice, read-out: t1/2 (converted)", "value": 30.9, "unit": "h"},
      {"measurement": "AUC(0-inf)", "setting": "[4]; [12]", "value": 64300, "unit": "ng·h/mL"},
      {"measurement": "k el", "setting": "[4]; [12]", "value": "1.94e-05", "unit": "s⁻¹"},
      {"measurement": "MRT inf", "setting": "[4]; [12]", "value": 14.7, "unit": "h"},
      {"measurement": "half-life", "setting": "[4]; mouse, plasma, ip, 200 mg/kg, IP, NMP vehicle, 200 mg/kg, mice, read-out: t1/2 (converted)", "value": 9.31, "unit": "h"},
      {"measurement": "half-life", "setting": "[4]; mouse, plasma, ip, 200 mg/kg, IP, new formulation, 200 mg/kg, read-out: half-life (converted)", "value": 9, "unit": "h"},
      {"measurement": "AUC(0-t)", "setting": "[4]; [13]", "value": 52000, "unit": "ng·h/mL"},
      {"measurement": "Cmax", "setting": "[4]; [13]", "value": 2910, "unit": "ng/mL"},
      {"measurement": "Tmax", "setting": "[4]; [13]", "value": 8, "unit": "h"},
      {"measurement": "AUC(0-inf)", "setting": "[4]; [14]", "value": 1410, "unit": "ng·h/mL"},
      {"measurement": "k el", "setting": "[4]; [14]", "value": "5.83e-05", "unit": "s⁻¹"},
      {"measurement": "MRT inf", "setting": "[4]; [14]", "value": 1.35, "unit": "h"},
      {"measurement": "half-life", "setting": "[4]; mouse, plasma, iv, 2 mg/kg, IV, NMP vehicle, 2 mg/kg, mice, read-out: t1/2 (converted)", "value": 3.28, "unit": "h"},
      {"measurement": "AUC(0-t)", "setting": "[4]; [15]", "value": 1400, "unit": "ng·h/mL"},
      {"measurement": "Cmax", "setting": "[4]; [15]", "value": 841, "unit": "ng/mL"},
      {"measurement": "Tmax", "setting": "[4]; [15]", "value": 0.5, "unit": "h"}
    ]}
  ]
}
